Source: patent US7235392B2, “Apoptotic EBV-transformed lymphocytes, a therapeutic agent for post-transplant lymphoproliferative disorder” (The Ohio State University Research Foundation, priority 2001, dated 2007)

Columns and labels:
[1] = tested on: PA-Lymphoblastoid Cell Line; assay: PA-Lymphoblastoid Cell Line: effect of oxygen deprivation in the presence of 3 sensitizers (cell counts); format: cell-based; details: for cell count, Time (hour) 0: time 0 h; for cell count, Time (hour) 0 / cell count, Time (hour) 4 / cell count, Time (hour) 20: solutions and cells bubbled with nitrogen for 15 minutes (oxygen deprivation); for cell count, Time (hour) 4: time 4 h; for cell count, Time (hour) 20: time 20 h
Experimental: PA-Lymphoblastoid Cell Line: Study of the effect of oxygen deprivation in the presence of 3 sensitizers Six solutions were prepared having the solutions and the cells from each of the 6 sets were “bubbled” with nitrogen separately for 15 minutes before being mixed.

LCLs = assay: Cell synchronization with aphidicolin, flow cytometric cell cycle analysis of propidium iodide stained cells; format: cell-based, human
Source text: Using a method described by Matherly^1 cell synchronization may be achieved with the drug aphidicolin, a DNA polymerase inhibitor. This drug prevents the cells from entering S-phase, the phase during which the cells replicate their DNA. Therefore, the cells accumulate at G1 phase, immediately prior to the start of S phase. These effects of aphidicolin are reversible; the cells return to normal cell-cycling soon after the drug is removed from the culture by washing. Thus, because all of the cells were synchronized together in G1, after removal of aphidicolin, they will proceed through S-phase together. Using flow cytometric analyis of propidium-iodine stained cells, as described by Krishan^2, we were able to determine the stage of cell cycle of the cultures:
Consequently, we hypothesize that treatment with aphidicolin will increase the effectiveness of specific killing via RBO-DNA photochemistry.

[2] = tested on: EBV infected human lymphoblastoid cells (LCLs); details: 10 mM glutathione

| Compound | hypoxic toxicity ([1]; oxygen deprivation, conclusion from cell counts) | cell count, Time (hour) 0 [1] | cell count, Time (hour) 4 [1] | cell count, Time (hour) 20 [1] | proportion of cells in S-phase (LCLs; after aphidicolin treatment and removal) | time of peak proportion of cells in S-phase after removal of aphidicolin (LCLs; after removal of aphidicolin from solution) | cell growth [2] |
| --- | --- | --- | --- | --- | --- | --- | --- |
| Cc1cc2c(cc1C)[n+]([O-])c1c(=O)[nH]c(=O)nc-1n2CC(O)C(O)C(O)CO (stereo not shown) [RBO, riboflavin N-oxide] | high hypoxic toxicity | 0.45 million cells/mL | 0.46 million cells/mL | 0.06 million cells/mL |  |  |  |
| Cc1cc2nc3c(=O)[nH]c(=O)nc-3n(C[C@H](O)[C@H](O)[C@H](O)CO)c2cc1C [Riboflavin (RB), Riboflavin] |  | 1 million cells/mL | 0.9 million cells/mL | 0.63 million cells/mL |  |  |  |
| Nc1n[n+]([O-])c2ccccc2[n+]1[O-] [Tirapazamine (TPZ), Tirapazamine] |  | 0.4 million cells/mL | 0.4 million cells/mL | 0.36 million cells/mL |  |  |  |
| C[C@@]1(CO)[C@H](O)CC[C@@]2(C)[C@H]1CC[C@H]1C[C@@H]3C[C@@]12CC[C@]3(O)CO [aphidicolin] |  |  |  |  | significantly increases | 6 h |  |
| N[C@@H](CCC(=O)N[C@@H](CS)C(=O)NCC(=O)O)C(=O)O [glutathione] |  |  |  |  |  |  | grow normally |
